Experimental data: US20120196918A1, “PREVENTING ISLET INFLAMMATION AND DYSFUNCTION AND MAINTAINING PROPER GLUCOSE LEVELS BY CONTROLLING eIF5A AND ITS HYPUSINATION” (priority 2009, published 2012)

How the values were obtained:
[1] = system: STZ-treated C57BL/6J mice; assay: Multiple low-dose streptozotocin (STZ) diabetes model in C57BL/6J mice; type: in vivo, mouse
Experimental: To test the role of eIF5A in cytokine-mediated islet dysfunction, efforts were made to identify a mouse model of islet inflammation. The multiple low dose streptozotocin (STZ) model, in which mice are subjected to five daily intraperitoneal doses (at 55 mg/kg body weight) of STZ, is considered to provoke local islet inflammation and cytokine release, in part through the recruitment of CD11c+ dendritic cells that release pro-inflammatory cytokines in the area of STZ-induced cellular destruction (27 and 28).
C57BL/6J mice were injected intraperitoneally with either stabilized siRNA against eIF5A (si-eIF5A) or control siRNA (si-Control) daily for three days, then subjected to the multiple low-dose STZ protocol (see schematic in FIG. 1a). […] The effect of administering si-eIF5A on islet viability following STZ treatment was determined by performing immunohistochemical analysis of the pancreata of mice. […] To quantify the differences in islet mass between STZ-treated and untreated animals, morphometry of insulin-stained pancreatic sections was performed.
Based on the observed data, if hypusination of eIF5A by DHS is required for cytokine responsiveness in islets, then inhibition of DHS in vivo should protect against low dose STZ diabetes. To test this, C57BL/6J mice were treated with GC7 or vehicle and then subjected to low dose STZ injections. GC7 was delivered in one of two different ways: either by daily bolus intraperitoneal injections (4 mg/kg/day) or by continuous subcutaneous delivery (40 μg/kg/h) using implanted osmotic pumps. A protocol similar to that shown in FIG. 1A was employed in these studies, with GC7 injections or pump implants starting 3 days prior to STZ injections.
Small interfering RNA (siRNA) studies: Stabilized siRNAs for intraperitoneal injections were custom synthesized by Dharmacon using the siSTABLE® modification. Groups of 10 week-old C57BL/6J male mice (from Jackson Labs) received daily intraperitoneal injections of 1.6 mg/kg siRNA prepared in 0.9% saline or vehicle alone (0.9% saline) for 3 days. For in vitro studies, islets from each group of injected mice were harvested on the fourth day and pooled prior to analysis. Injections with each siRNA were performed on at least 3 different occasions. siRNA sequences were as follows: siControl, 5′-[…]-3′; si-eIF5A, 5′-[…]-3′. For siRNA studies in the rat β cell-derived line INS-1 (832/13), cells were transfected with a SMART Pool® siRNA against rat eIF5A1 (Dharmacon, #L-083855-01) or non-targeting control siRNA #1 (Dharmacon) using DharmaFECT® transfection reagent (Dharmacon).
Immunostaining and morphometric assessment of β cell mass: Immunostaining of pancreatic sections proceeded as described previously (72). For assessment of islet cell death in pancreatic sections, the technique of terminal deoxynucleotidyl transferase dUTP nick end labeling (TUNEL) was performed using biotinylated 16-dUTP (Roche) and Texas Red Neutravidin (Invitrogen). Digital images of each islet at 40× magnification were acquired using an Axio-Observer D1 microscope (Zeiss) inverted fluorescent microscope equipped with a high-resolution color camera. TUNEL-positive/insulin-positive nuclei were counted manually by an observer blinded to sample identity, and data were re-coded as the average number of TUNEL-positive nuclei per islet. β cell mass was calculated as described previously (73), but with some modifications. Briefly, pancreata from 3 mice per treatment group were rapidly dissected and weighed, fixed in 4% paraformaldehyde, paraffin-embedded, and longitudinally sectioned. Three sections/pancreas (approx. 75 μm apart) were subsequently immunostained for insulin and counterstained with hematoxylin as described (74), and digital images of each section at 10× magnification were acquired on an Axio-Observer Z1 microscope (Zeiss) fitted with an AxioCam high resolution color camera. […]

[2] = system: INS-1 cells; assay: GSCa and GSIS of INS-1 cells exposed to cytokines; type: cell-based, rat; settings: preincubation with 125 μM GC7, cytokines 4 h
Experimental: GSCa and GSIS studies were carried out to assess INS-1 cell function in the presence of cytokines and GC7. […] This asynchronous pattern may be related to the dispersed nature of insulinoma cells compared to f3 cells in an intact islet.
Cytokine and inhibitor incubation studies: For cytokine incubation assays, a 1000× cocktail of cytokines containing 5 μg/ml IL1β, 10 μg/ml TNFα, and 100 μg/ml IFNγ (all prepared in 0.1% BSA in Tris-buffered saline) was applied at 1× final concentration to groups of 50 islets or 1×10^6 INS-1 (832/13) cells for a total of 4 h at 37° C. For GC7 incubation studies, GC7 was prepared at a stock concentration of 125 mM in 10 mM acetic acid and applied to cultures of 50 islets or 1×10^6 INS-1 cells to obtain the final concentrations indicted in the figures. Where needed, GC7 was protected from amine oxidases in serum by addition of 1 mM aminoguanidine (Sigma). Cells were incubated with GC7 overnight (˜16 h) at 37° C. prior to analysis. […]
GSCa imaging assays: Intracellular Ca^2+ ((Ca2+)i) was measured using the ratiometric Ca^2+ indicator fura-2 AM using a modification of previously published methods (79). The glucose-stimulated (Ca2+)i response (GSCa) was defined as the difference between ratio measurements (340/380 nm fluorescence) in 11 mM vs. 3 mM glucose. Data were analyzed with IP Lab's software version 4.0 (Scanalytics). […]

“5′-AACGGAAUGACUUCCAGCUGA-3′ (siSTABLE modification, further chemistry not given here) [si-eIF5A]” was tested, and the “average fasting blood glucose” value ([1]; siRNA 1.6 mg/kg i.p. daily for 3 days, then multiple low-dose STZ, day 7) was 101 mg/dL, the “immunohistochemical staining for iNOS in islets” value ([1]; siRNA i.p., STZ, end of the study) was “undetectable” and the “islet number and insulin staining of pancreata (immunohistochemistry)” value ([1]; siRNA i.p., multiple low-dose STZ) was “relatively preserved islet number and insulin granularity”. For the same compound, the “glucose tolerance in IPGTT” value ([1]; siRNA i.p., multiple low-dose STZ, compared to si-Control-injected mice) was “improved glucose tolerance”, the “reduction of β cell mass compared to non-STZ-treated controls” value ([1]; siRNA i.p., multiple low-dose STZ, morphometry of insulin-stained sections) was 1.4 fold and the “iNOS induction in islets by immunoblot” value ([1]; siRNA i.p., 24 h after the first STZ treatment) was “attenuated”.
For `NCCCCCCCN=C(N)N` [GC7], the “GSCa and GSIS after cytokines” value [2] was “reverses the suppressive effect of cytokines on GSCa and GSIS almost completely”, the “STZ-induced glucose intolerance (GTT), osmotic pump GC7” value ([1]; GC7 40 μg/kg/h continuous s.c. osmotic pump, started 3 days before STZ) was “near-complete protection” and the “STZ-induced glucose intolerance (GTT), intraperitoneal GC7” value ([1]; GC7 4 mg/kg/day i.p. bolus, started 3 days before STZ) was “near-complete protection”. For the same compound, the “β cell mass (histomorphometry)” value ([1]; GC7-injected animals, STZ) was “full preservation of mass”, the “iNOS production in islets” value ([1]; GC7-treated pump animals, STZ) was “suppression of iNOS production” and the “TUNEL+ cells per islet” value ([1]; GC7 plus STZ, STZ alone 0.78) was 0.42. The “serum IL-6 levels” value ([1]; concurrent treatment with STZ) was “did not affect IL-6 levels” and the “insulin secretion at 0 and 30 min during glucose challenge” value ([1]; pump-implanted animals, STZ) was “normal insulin secretory response”.
